# Laboratory results from patent US20150297629A1, “MODULATION OF RENIN-ANGIOTENSIN SYSTEM (RAS) RELATED DISEASES BY ANGIOTENSINOGEN” (Isis Pharmaceuticals, Inc,, priority 2012, published 2015).
# Columns and labels:
# [1] = test system: female SHR rats; test: Blood pressure by tail-cuff method in female SHR rats with subsequent Captopril, Study 2; type: in vivo, Spontaneously hypertensive (SHR) rats; conditions: Captopril 50 mg/kg/day for 4 days, no ASO
# Protocol: A control group of female SHR rats was injected with phosphate buffered saline (PBS) administered weekly for 2 weeks. Another control group constituted a group of wild-type rats injected with phosphate buffered saline (PBS) administered weekly for 2 weeks. […] Systolic blood pressure (SBP), mean arterial pressure (MAP), and diastolic blood pressure (DBP) in the rats was measured by the tail-cuff volume-pressure method (Kent Scientific, Torrington, Conn.).
# [2] = test system: SHR; test: Mean arterial pressure by tail-cuff method in SHR, Study 3; type: in vivo, Spontaneously hypertensive (SHR) rats; conditions: ISIS 552668 and control oligonucleotide 100 mg/kg/week, Captopril 150 mg/kg/day
# Protocol: A control group of SHR was injected with phosphate buffered saline (PBS) administered weekly for 3 weeks. Another control group of SHR was injected with 100 mg/kg/week of a control oligonucleotide (a nucleotide not targeted to angiotensinogen) administered for 3 weeks. […] Mean arterial pressure (MAP) in the rats was measured by the tail-cuff volume-pressure method (Kent Scientific, Torrington, Conn.).
# [3] = test system: angiotensinogen mRNA; test: Real-time PCR of angiotensinogen mRNA in SHR tissues, Study 3; type: in vivo, Spontaneously hypertensive (SHR) rats; conditions: 3 weeks, oligonucleotides 100 mg/kg/week, Captopril 150 mg/kg/day
# Protocol: (§1) A group of SHR was injected with 100 mg/kg/week of ISIS 552668 administered for 3 weeks. A control group of SHR was injected with phosphate buffered saline (PBS) administered weekly for 3 weeks. Another control group of SHR was injected with 100 mg/kg/week of a control oligonucleotide (a nucleotide not targeted to angiotensinogen) administered for 3 weeks.
# […] The mRNA levels were normalized using the housekeeping gene, GAPDH. […] Results are presented as percent inhibition of angiotensinogen, relative to control.
# [4] = test system: renin mRNA; test: Real-time PCR of kidney renin mRNA in SHR, Study 3; type: in vivo, Spontaneously hypertensive (SHR) rats; conditions: 3 weeks
# Protocol: A control group of SHR was injected with phosphate buffered saline (PBS) administered weekly for 3 weeks. Another control group of SHR was injected with 100 mg/kg/week of a control oligonucleotide (a nucleotide not targeted to angiotensinogen) administered for 3 weeks. […] RNA was extracted from kidney tissue for real-time PCR analysis of renin, using primer probe set rRenin2 (forward sequence [NT], designated herein as SEQ ID NO: 21; reverse sequence [NT], designated herein as SEQ ID NO: 22; probe sequence [NT], designated herein as SEQ ID NO: 23). The mRNA levels were normalized using the housekeeping gene, GAPDH. […] Increase in renin in the body is deleterious to the overall health of the animal (Nguyen and Muller, The Biology of the (Pro)Renin Receptor, J Am Soc Nephrol, 2010 January, 21(1):18-23). […] Results are presented as percent expression of renin, relative to control.
# [5] = test system: angiotensinogen protein; test: ELISA of angiotensinogen plasma levels in SHR, Study 3; type: in vivo, Spontaneously hypertensive (SHR) rats; conditions: 3 weeks, oligonucleotides 100 mg/kg/week, Captopril 150 mg/kg/day
# Protocol: as §1
# Angiotensinogen plasma levels were measured by ELISA (IBL International, Toronto, Canada). […] Results are presented as percent inhibition of angiotensinogen, relative to PBS control.
# [6] = test system: SHR; test: Systolic blood pressure by tail-cuff method in SHR before and after ISIS 552668 added to chronic Captopril, Study 4; type: in vivo, Spontaneously hypertensive (SHR) rats; conditions: for Blood pressure (SBP), After ISIS 552668 dosing: then 50 mg/kg ISIS 552668 added
# [7] = test system: Dahl/SS rats; test: Blood pressure by tail-cuff method in Dahl/SS rats; type: in vivo, Dahl/Salt Sensititive (Dahl/SS) rats; conditions: female Dahl/SS rats, 8% NaCl diet; 3 weeks; ISIS oligonucleotides 40 mg/kg/week, Captopril 150 mg/kg daily
# Protocol: The rats were fed a diet with 8% NaCl. A group of female Dahl/SS rats was injected with 40 mg/kg/week of ISIS 552668 administered for 3 weeks. A group of female Dahl/SS rats was injected with 40 mg/kg/week of control oligonucleotides ISIS 141923 administered for 3 weeks. […] A control group of female Dahl/SS rats was injected with phosphate buffered saline (PBS) administered weekly for 3 weeks. Another control group constituted a group of Dahl/Salt Resistant (Dahl/SR) rats injected with phosphate buffered saline (PBS) administered weekly for 3 weeks.
# Systolic blood pressure (SBP), mean arterial pressure (MAP), and diastolic blood pressure (DBP) in the rats was measured by the tail-cuff volume-pressure method (Kent Scientific). The results are presented in Table 12, expressed as the percent decrease in blood pressure compared to the control SHR group.
# [8] = Captopril 25 mg/kg/day for 10 weeks
# [9] = Captopril 50 mg/kg/day for 10 weeks
# [10] = Captopril 100 mg/kg/day for 10 weeks
smiles,measurement,setting,value
"C[C@H](CS)C(=O)N1CCC[C@H]1C(=O)O [Captopril, reference compound]",DBP,[1],97 mm Hg
same,MAP,[1],113 mm Hg
same,SBP,[1],145 mm Hg
same,"MAP, Week 1",[2],107 mm Hg
same,"MAP, Week 2",[2],109 mm Hg
same,"MAP, Week 3",[2],112 mm Hg
same,"Percent inhibition of angiotensinogen mRNA compared to the PBS control, Heart",[3],0%
same,"Percent inhibition of angiotensinogen mRNA compared to the PBS control, Kidney",[3],41%
same,"Percent inhibition of angiotensinogen mRNA compared to the PBS control, Liver",[3],0%
same,Induction of kidney renin expression compared to that with ISIS 552668,[4]; Captopril 150 mg/kg/day versus ISIS 552668 100 mg/kg/week,about three-fold
same,Percent increase of kidney renin mRNA,"[4]; oligonucleotides 100 mg/kg/week, Captopril 150 mg/kg/day, PBS = 100",1110%
same,Percent inhibition of angiotensinogen protein in the plasma compared to the PBS control,[5],24%
same,"Blood pressure (SBP), Before ISIS 552668 dosing",[6]; [8],159
same,"Blood pressure (SBP), After ISIS 552668 dosing",[6]; [8],153
same,"Blood pressure (SBP), Before ISIS 552668 dosing",[6]; [9],147
same,"Blood pressure (SBP), After ISIS 552668 dosing",[6]; [9],133
same,"Blood pressure (SBP), Before ISIS 552668 dosing",[6]; [10],137
same,"Blood pressure (SBP), After ISIS 552668 dosing",[6]; [10],127
same,"Blood pressure (SBP), Before ISIS 552668 dosing",[6]; Captopril 200 mg/kg/day for 10 weeks,135
same,DBP,[7],111 mm Hg
same,MAP,[7],128 mm Hg
same,SBP,[7],162 mm Hg
